Measurements published in publication PMC8632988, “Inhibition of SYK and cSrc kinases can protect bone and cartilage in preclinical models of osteoarthritis and rheumatoid arthritis” (Scientific Reports, 2021).
Several values for one entry are separate records, joined by “and”; a condition that tells them apart may be missing. Equal entries are not always repeated. Where two headings read alike, the source gives them in different places.

Assays:
[1] = Tissue distribution after single oral administration in rats; assay type: in vivo, rat; conditions: 100 mg/kg PO, male Wistar rats; for Muscle concentration / Prostate concentration / Spleen concentration: individual animals, 100 mg/kg; for Cmax / Tmax / AUC / Kp / AUC(0-inf) / half-life: rat, Estimated Value; for AUC: read-out: AUC24; for Kp: read-out: AUC24/AUC24 (plasma); for half-life: read-out: Terminal t1/2 (converted)
Experimental: Experiments were performed at ChemPartner, Shanghai, China and approved by Institutional Ethics Committee (IEC) of ChemPartner. Male Wistar 10–12 weeks old rats with body weights of 185–220 g and male New Zealand rabbits with body weights of 2.0–2.3 kg were purchased from Shanghai SLAC Laboratory Animal Co., Ltd. MT-SYK-03 was administered to the three groups of rats (six rats per group) via oral gavage at 10 mL/kg concentration, and in rabbits 5 mL/kg concentration. Blood samples were kept on ice and centrifuged (2000 g, 4 ℃, 5 min) within 15 min post sampling.

[2] = system: SYK-mediated signaling in human B-cell lymphoma cells; experiment: Detection of SYK activity in cells by Western blot; assay type: cell-based; conditions: 1, 3, 10 uM
Experimental: Western blot was performed at A. N. Bakh Institute of Biochemistry, Russia. Human B-cell lymphoma cells obtained from Russian collection cell cultures (RCCC) were cultured in 5% CO2 humidified atmosphere at 37 °C in RPMI 1640 supplemented with 100 U mL^–1 penicillin/streptomycin and 10% heat inactivated FBS. P3H3 cells (10^6 cells in 1 ml of RPMI media with 5% FBS) were incubated with test compound or vehicle control (DMSO, 1%) for one hour at 37 °C in a 5% CO2-incubator. Then anti-IgM (1 μg/mL) was added to activate B-cell receptors and incubation continued for additional 15 min. After that the cells were washed with cooled PBS buffer and were lysed in 200 μL of ice-cold lysis buffer (62,5 mM Tris–HCl, pH 6.8, 2% w/v SDS, 10% glycerin, 50 mM DTT, 0,01% w/v BPB). Then lysates were sonicated for 20 s in ice, heated to 95–100 °C for 5 min and centrifuged for 5 min. 20 μL of obtained samples were electrophoresed on 10% SDS–polyacrylamide gel (gel blocks: 90 × 60 × 1.5 mm; current intensity: 30 mA, time: 2.5–3 h) and transferred to nitrocellulose membranes (BioRad). Western blotting was carried out according to the Amersham Pharmacia Biotech ECL Western blotting protocol. […]

In the case of `COc1cc(Nc2ncnc(Nc3cc4c(cn3)NC(=O)C(C)(C)O4)n2)cc(OC)c1OC` [MT-SYK-03], the Muscle concentration ([1]; muscle, 8 h) is reported as 107 ng/mL and 93.2 ng/mL, the Muscle concentration ([1]; muscle, 24 h) is reported as 8.92 ng/mL and BQL and the Prostate concentration ([1]; prostate, 2 h) is reported as 1200 ng/mL and 1500 ng/mL. The Prostate concentration ([1]; prostate, 8 h) was 500 ng/mL and 154 ng/mL and 98.0 ng/mL, the Prostate concentration ([1]; prostate, 24 h) was “BQL” and the Cmax ([1]; bone) was 708 ng/mL. It also gave a Tmax ([1]; bone) of 8 h, an AUC ([1]; bone) of 9680 ng·h/mL and a Kp ([1]; bone) of 2.5. It also gave a Cmax ([1]; joint) of 663 ng/mL, a Tmax ([1]; joint) of 8 h and an AUC ([1]; joint) of 9650 ng·h/mL. The Kp ([1]; joint) was 2.49, the AUC(0-inf) ([1]; kidney) was 18300 ng·h/mL and the Cmax ([1]; kidney) was 2800 ng/mL. For the same compound, the Tmax ([1]; kidney) was 2 h, the AUC ([1]; kidney) was 18100 ng·h/mL and the Kp ([1]; kidney) was 4.68. It also gave a half-life ([1]; kidney) of 3.38 h, an AUC(0-inf) ([1]; liver) of 32400 ng·h/mL and a Cmax ([1]; liver) of 5250 ng/mL. The Tmax ([1]; liver) was 2 h, the AUC ([1]; liver) was 32100 ng·h/mL and the Kp ([1]; liver) was 8.3. It also gave a half-life ([1]; liver) of 3.28 h, an AUC(0-inf) ([1]; muscle) of 3150 ng·h/mL and a Cmax ([1]; muscle) of 436 ng/mL. It also gave a Tmax ([1]; muscle) of 2 h, an AUC ([1]; muscle) of 3120 ng·h/mL and a Kp ([1]; muscle) of 0.805. It also gave a half-life ([1]; muscle) of 3.7 h, an AUC(0-inf) ([1]; prostate) of 8080 ng·h/mL and a Cmax ([1]; prostate) of 1260 ng/mL. For the same compound, the Tmax ([1]; prostate) was 2 h, the AUC ([1]; prostate) was 7960 ng·h/mL and the Kp ([1]; prostate) was 2.05. For the same compound, the half-life ([1]; prostate) was 3.89 h, the AUC(0-inf) ([1]; spleen) was 12200 ng·h/mL and the Cmax ([1]; spleen) was 1910 ng/mL. It also gave a Tmax ([1]; spleen) of 2 h, an AUC ([1]; spleen) of 12000 ng·h/mL and a Kp ([1]; spleen) of 3.1. For the same compound, the half-life ([1]; spleen) was 3.81 h, the Spleen concentration ([1]; spleen, 2 h) was 1420 ng/mL and 2260 ng/mL and the Spleen concentration ([1]; spleen, 8 h) was 726 ng/mL and 129 ng/mL and 268 ng/mL. The Spleen concentration ([1]; spleen, 24 h) was “BQL” and the “Anti-IgM induced autophosphorylation of SYK and phosphorylation of CD19, BTK, ERK1/2 and JNK1/2” value [2] was “dose-dependently inhibited”.
